Experimental data from PubChem BioAssay AID743490 (The Scripps Research Institute Molecular Screening Center, 2014).
Active and inactive are the calls of the source. The rule behind the calls is not given here.

What follows are compounds tested against Trace amine-associated receptor 1 (Homo sapiens) (UniProt Q96RJ0) (assay: TAAR1 desensitization by agonist compounds, SAR follow-up, counter-screen for TAAR1 agonist project, cell-based, fluorescence, human, MedChem round 1 (AID 743490)). Conditions: hTAAR1 cells, desensitization of agonist response.
Sequence of Trace amine-associated receptor 1 (Homo sapiens) (Q96RJ0 whole entry, looked up): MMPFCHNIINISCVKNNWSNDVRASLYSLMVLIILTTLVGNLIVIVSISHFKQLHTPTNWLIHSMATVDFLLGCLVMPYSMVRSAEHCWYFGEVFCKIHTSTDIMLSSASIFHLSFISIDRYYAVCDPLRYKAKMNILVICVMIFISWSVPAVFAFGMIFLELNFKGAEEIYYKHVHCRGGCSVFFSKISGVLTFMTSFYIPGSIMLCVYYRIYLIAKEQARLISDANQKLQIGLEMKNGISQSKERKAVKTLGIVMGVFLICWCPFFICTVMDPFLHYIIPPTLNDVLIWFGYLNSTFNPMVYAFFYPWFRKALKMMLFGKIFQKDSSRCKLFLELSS

| SMILES | IC50 |
| --- | --- |
| NC(=O)CCN1C[C@H](c2ccccc2)[C@@H]2[C@H]1C1CCN2CC1 | > 29.9 µM (inactive) |
| CC(CN1CCCC1Cc1ccccc1)C(=O)c1ccc2c(c1)OCCO2 (stereo unspecified) | > 29.9 µM (inactive) |
| CC1CN(CCC(=O)c2ccc3c(c2)OCCO3)CC1c1ccccc1 (stereo unspecified) | 4.4 µM |
| O=C(CCN1CCC(O)(c2ccccc2)C1)c1ccc2c(c1)OCCO2 (stereo unspecified) | > 29.9 µM (inactive) |
| O=C(CCN1C[C@@H](C(=O)O)[C@H](c2ccccc2)C1)NCc1cccs1 | > 29.9 µM (inactive) |
| O=C(CCN1C[C@@H](C(=O)O)[C@H](c2ccccc2)C1)NC1CCCC1 | > 29.9 µM (inactive) |
| O=C(CCN1CCC(O)(c2ccc(F)cc2)C1)c1ccc2c(c1)OCCO2 (stereo unspecified) | > 29.9 µM (inactive) |
| Cc1ccc(C(=O)CCN2CCC(c3ccccc3)C2)cc1 (stereo unspecified) | > 29.9 µM (inactive) |
| O=C(CCN1CCC(c2ccccc2)C1)c1ccccc1 (stereo unspecified) | inactive |
| O=C(CCN1C[C@@H](C(=O)O)[C@H](c2cccc(F)c2)C1)NC1CC1 | > 29.9 µM (inactive) |
| CC(CN1CCC(c2ccccc2)C1)C(=O)c1ccc2c(c1)OCCO2 (stereo unspecified) | > 29.9 µM (inactive) |
